Measurements as given in US20160367623A1, “AGONISTS OF GUANYLATE CYCLASE USEFUL FOR THE TREATMENT OF GASTROINTESTINAL DISORDERS, INFLAMMATION, CANCER AND OTHER DISORDERS” (priority 2015, published 2016).
Bridge positions count the residues as written; N and C are the ends. Ends that are not written are not given here.

Test system: patients with chronic idiopathic constipation (CIC)
Assay: Second phase 3 CIC trial: change from baseline in stool consistency (BSFS)
Type: in vivo, human
Settings: 6 mg
[1] = Post-Treatment Week 14, ITT Population-Excluding Duplicate Patients
[2] = Week 1, All Randomized (includes Duplicate Patients)
[3] = Week 1, ITT Population-Excluding Duplicate Patients
[4] = Week 2, All Randomized (includes Duplicate Patients)
[5] = Week 2, ITT Population-Excluding Duplicate Patients
[6] = Week 3, All Randomized (includes Duplicate Patients)
[7] = Week 3, ITT Population-Excluding Duplicate Patients
[8] = Week 4, All Randomized (includes Duplicate Patients)
[9] = Week 4, ITT Population-Excluding Duplicate Patients
[10] = Week 5, All Randomized (includes Duplicate Patients)
[11] = Week 5, ITT Population-Excluding Duplicate Patients
[12] = Week 6, All Randomized (includes Duplicate Patients)
[13] = Week 6, ITT Population-Excluding Duplicate Patients
[14] = Week 7, All Randomized (includes Duplicate Patients)
[15] = Week 7, ITT Population-Excluding Duplicate Patients
[16] = Week 8, All Randomized (includes Duplicate Patients)
[17] = Week 8, ITT Population-Excluding Duplicate Patients

Asn^1-Asp^2-Glu^3-Cys^4-Glu^5-Leu^6-Cys^7-Val^8-Asn^9-Val^10-Ala^11-Cys^12-Thr^13-Gly^14-Cys^15-Leu^16 (NDECELCVNVACTGCL; disulfide 4-12, 7-15) [Plecanatide, uroguanylin analogue, guanylate cyclase-C agonist; (C4:C12, C7:C15) bicycle peptide]
Change from Baseline in Stool Consistency, LS Mean (SE) [1]: 1.07 (0.074) | Change from Baseline in Stool Consistency, Mean (SD) [1]: 1.05 (1.358) | Change from Baseline in Stool Consistency, Difference from Placebo [2]: 0.84 | Change from Baseline in Stool Consistency, LS Mean (SE) [2]: 1.41 (0.071) | Change from Baseline in Stool Consistency, Mean (SD) [2]: 1.43 (1.501) | Change from Baseline in Stool Consistency, Difference from Placebo (Week 1, ITT Population): 0.84 | Change from Baseline in Stool Consistency, LS Mean (SE) (Week 1, ITT Population): 1.44 (0.073) | Change from Baseline in Stool Consistency, Mean (SD) (Week 1, ITT Population): 1.45 (1.501) | Change from Baseline in Stool Consistency, Difference from Placebo [3]: 0.86 | Change from Baseline in Stool Consistency, LS Mean (SE) [3]: 1.47 (0.073) | Change from Baseline in Stool Consistency, Mean (SD) [3]: 1.47 (1.495) | Change from Baseline in Stool Consistency, Difference from Placebo [4]: 0.67 | Change from Baseline in Stool Consistency, LS Mean (SE) [4]: 1.36 (0.071) | Change from Baseline in Stool Consistency, Mean (SD) [4]: 1.36 (1.560) | Change from Baseline in Stool Consistency, Difference from Placebo (Week 2, ITT Population): 0.68 | Change from Baseline in Stool Consistency, LS Mean (SE) (Week 2, ITT Population): 1.39 (0.073) | Change from Baseline in Stool Consistency, Mean (SD) (Week 2, ITT Population): 1.38 (1.560) | Change from Baseline in Stool Consistency, Difference from Placebo [5]: 0.68 | Change from Baseline in Stool Consistency, LS Mean (SE) [5]: 1.41 (0.074) | Change from Baseline in Stool Consistency, Mean (SD) [5]: 1.39 (1.562) | Change from Baseline in Stool Consistency, Difference from Placebo [6]: 0.53 | Change from Baseline in Stool Consistency, LS Mean (SE) [6]: 1.41 (0.072) | Change from Baseline in Stool Consistency, Mean (SD) [6]: 1.44 (1.479) | Change from Baseline in Stool Consistency, Difference from Placebo (Week 3, ITT Population): 0.54 | Change from Baseline in Stool Consistency, LS Mean (SE) (Week 3, ITT Population): 1.44 (0.074) | Change from Baseline in Stool Consistency, Mean (SD) (Week 3, ITT Population): 1.46 (1.480) | Change from Baseline in Stool Consistency, Difference from Placebo [7]: 0.55 | Change from Baseline in Stool Consistency, LS Mean (SE) [7]: 1.46 (0.074) | Change from Baseline in Stool Consistency, Mean (SD) [7]: 1.47 (1.485) | Change from Baseline in Stool Consistency, Difference from Placebo [8]: 0.54 | Change from Baseline in Stool Consistency, LS Mean (SE) [8]: 1.41 (0.071) | Change from Baseline in Stool Consistency, Difference from Placebo (Week 4, ITT Population): 0.52 | Change from Baseline in Stool Consistency, LS Mean (SE) (Week 4, ITT Population): 1.42 (0.074) | Change from Baseline in Stool Consistency, Mean (SD) (Week 4, ITT Population): 1.42 (1.603) | Change from Baseline in Stool Consistency, Difference from Placebo [9]: 0.53 | Change from Baseline in Stool Consistency, LS Mean (SE) [9]: 1.44 (0.074) | Change from Baseline in Stool Consistency, Mean (SD) [9]: 1.42 (1.608) | Change from Baseline in Stool Consistency, Difference from Placebo [10]: 0.67 | Change from Baseline in Stool Consistency, LS Mean (SE) [10]: 1.52 (0.072) | Change from Baseline in Stool Consistency, Difference from Placebo (Week 5, ITT Population): 0.68 | Change from Baseline in Stool Consistency, LS Mean (SE) (Week 5, ITT Population): 1.55 (0.074) | Change from Baseline in Stool Consistency, Mean (SD) (Week 5, ITT Population): 1.57 (1.594) | Change from Baseline in Stool Consistency, Difference from Placebo [11]: 0.69 | Change from Baseline in Stool Consistency, LS Mean (SE) [11]: 1.58 (0.075) | Change from Baseline in Stool Consistency, Mean (SD) [11]: 1.58 (1.598) | Change from Baseline in Stool Consistency, Difference from Placebo [12]: 0.70 | Change from Baseline in Stool Consistency, LS Mean (SE) [12]: 1.51 (0.072) | Change from Baseline in Stool Consistency, Difference from Placebo (Week 6, ITT Population): 0.72 | Change from Baseline in Stool Consistency, LS Mean (SE) (Week 6, ITT Population): 1.55 (0.074) | Change from Baseline in Stool Consistency, Mean (SD) (Week 6, ITT Population): 1.57 (1.517) | Change from Baseline in Stool Consistency, Difference from Placebo [13]: 0.74 | Change from Baseline in Stool Consistency, LS Mean (SE) [13]: 1.57 (0.075) | Change from Baseline in Stool Consistency, Mean (SD) [13]: 1.58 (1.520) | Change from Baseline in Stool Consistency, Difference from Placebo [14]: 0.64 | Change from Baseline in Stool Consistency, LS Mean (SE) [14]: 1.50 (0.072) | Change from Baseline in Stool Consistency, Difference from Placebo (Week 7, ITT Population): 0.64 | Change from Baseline in Stool Consistency, LS Mean (SE) (Week 7, ITT Population): 1.54 (0.074) | Change from Baseline in Stool Consistency, Mean (SD) (Week 7, ITT Population): 1.56 (1.540) | Change from Baseline in Stool Consistency, Difference from Placebo [15]: 0.67 | Change from Baseline in Stool Consistency, LS Mean (SE) [15]: 1.56 (0.075) | Change from Baseline in Stool Consistency, Mean (SD) [15]: 1.57 (1.544) | Change from Baseline in Stool Consistency, Difference from Placebo [16]: 0.57 | Change from Baseline in Stool Consistency, LS Mean (SE) [16]: 1.48 (0.072) | Change from Baseline in Stool Consistency, Difference from Placebo (Week 8, ITT Population): 0.58 | Change from Baseline in Stool Consistency, LS Mean (SE) (Week 8, ITT Population): 1.51 (0.074) | Change from Baseline in Stool Consistency, Mean (SD) (Week 8, ITT Population): 1.53 (1.539) | Change from Baseline in Stool Consistency, Difference from Placebo [17]: 0.60 | Change from Baseline in Stool Consistency, LS Mean (SE) [17]: 1.53 (0.075) | Change from Baseline in Stool Consistency, Mean (SD) [17]: 1.54 (1.543) | Change from Baseline in Stool Consistency, Difference from Placebo (Week 9, All Randomized (includes Duplicate Patients)): 0.67
